# Measured values: ChEMBL document CHEMBL1156726, “Discovery of a potent and selective aurora kinase inhibitor” (Bioorg Med Chem Lett, 2008)
# Assays:
# Aurora kinase A = target: T1, Aurora kinase A (Homo sapiens, UniProt O14965)
# T1 sequence (O14965 whole entry): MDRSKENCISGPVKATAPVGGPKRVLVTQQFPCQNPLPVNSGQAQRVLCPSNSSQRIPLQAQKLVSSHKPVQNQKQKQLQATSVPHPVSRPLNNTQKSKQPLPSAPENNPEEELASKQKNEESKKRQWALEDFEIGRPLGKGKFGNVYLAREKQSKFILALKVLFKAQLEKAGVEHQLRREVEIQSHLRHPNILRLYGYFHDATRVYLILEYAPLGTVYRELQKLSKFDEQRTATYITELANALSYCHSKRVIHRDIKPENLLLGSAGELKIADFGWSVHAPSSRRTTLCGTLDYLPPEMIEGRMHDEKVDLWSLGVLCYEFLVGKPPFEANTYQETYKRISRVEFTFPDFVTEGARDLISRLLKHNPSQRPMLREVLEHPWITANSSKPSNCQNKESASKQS
# Description: Inhibition of Aurora A by radiometric assay
# HCT-116 [1] = assay: Antiproliferative activity against human HCT116 cells assessed as BrdU incorporation; type: functional, cell-based
# HCT-116 [2] = assay: Cell cycle arrest in human HCT116 cells assessed as accumulation of 4N DNA phase after 16 hrs by FACS; details: HCT-116, 16 h
# Aurora kinase B = Aurora kinase B (Homo sapiens, UniProt Q96GD4); assay: Inhibition of Aurora B by radiometric assay
# Chain of Aurora kinase B (Q96GD4 whole entry): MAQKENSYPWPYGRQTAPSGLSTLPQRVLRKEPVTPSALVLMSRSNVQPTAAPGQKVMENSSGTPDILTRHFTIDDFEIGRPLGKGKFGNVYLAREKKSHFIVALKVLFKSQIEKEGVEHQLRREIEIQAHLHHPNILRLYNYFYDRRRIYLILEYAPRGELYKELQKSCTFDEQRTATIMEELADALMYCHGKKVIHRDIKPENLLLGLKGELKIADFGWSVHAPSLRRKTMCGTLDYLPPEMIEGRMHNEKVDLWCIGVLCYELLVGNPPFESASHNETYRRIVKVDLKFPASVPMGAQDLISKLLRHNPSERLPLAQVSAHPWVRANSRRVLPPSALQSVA
# Mus musculus [3] = assay: Decrease in histone H3 phosphorylation in human HCT116 cells xenografted mouse at 100 mg/kg, ip after 6 hrs; type: functional; details: HCT-116, ip, route intraperitoneal
# Mus musculus [4] = assay: Decrease in histone H3 phosphorylation in human HCT116 cells xenografted mouse at 50 mg/kg, ip after 6 hrs; type: functional; details: HCT-116, ip, route intraperitoneal
# HCT-116 [5] = assay: Decrease in histone H3 phosphorylation in human HCT116 cells after 16 hrs by Western blot; details: HCT-116, 16 h
# Mus musculus [6] = assay: Decrease in histone H3 phosphorylation in human HCT116 cells xenografted mouse at 100 mg/kg, ip after 10 hrs; type: functional; details: HCT-116, ip, route intraperitoneal
# Mus musculus [7] = assay: Decrease in histone H3 phosphorylation in human HCT116 cells xenografted mouse at 50 mg/kg, ip after 10 hrs; type: functional; details: HCT-116, ip, route intraperitoneal
# [8] = Drug level in HCT116 xenografted mouse tumor at 100 mg/kg, ip after 10 hrs; type: ADME, organism-based, Neoplasm; design: dose 100 mg/kg, route intraperitoneal; details: human, tumor (HCT116 xenograft), read-out: Drug uptake
# [9] = Drug level in HCT116 xenografted mouse tumor at 100 mg/kg, ip after 6 hrs; type: ADME, organism-based, Neoplasm; design: dose 100 mg/kg, route intraperitoneal; details: human, tumor (HCT116 xenograft), read-out: Drug uptake
# [10] = Drug level in HCT116 xenografted mouse tumor at 50 mg/kg, ip after 6 hrs; type: ADME, organism-based, Neoplasm; design: dose 50 mg/kg, route intraperitoneal; details: human, tumor (HCT116 xenograft), read-out: Drug uptake
# [11] = Drug level in HCT116 xenografted mouse tumor at 50 mg/kg, ip after 10 hrs; type: ADME, organism-based, Neoplasm; design: dose 50 mg/kg, route intraperitoneal; details: human, tumor (HCT116 xenograft), read-out: Drug uptake
# HCT-116 [12] = assay: Antitumor activity against human HCT116 cells xenografted in mouse at 100 mg/kg, ip administered twice weekly for 3 weeks; type: functional; details: HCT-116, ip, 504 h, route intraperitoneal, read-out: TGI
SMILES,IC50 (Aurora kinase A) [nM],EC50 (HCT-116 [1]) [nM],EC50 (HCT-116 [2]) [nM],IC50 (Aurora kinase B) [nM],inhibition in vivo at 50 mg/kg (Mus musculus [4]) [%],EC50 (HCT-116 [5]) [nM],inhibition in vivo at 50 mg/kg (Mus musculus [7]) [%],other results
O=C(Nc1ccc(CCNc2ncnc3ccsc23)cc1)c1cccc(C(F)(F)F)c1,3200,–,–,–,–,–,–,–
O=C(Nc1cccc(C(F)(F)F)c1)c1ccc(CCNc2ncnc3ccsc23)cc1,> 20000,–,–,–,–,–,–,–
O=C(Nc1ccc(CCNc2ncnc3ccsc23)cc1)Nc1cccc(C(F)(F)F)c1,1200,–,–,–,–,–,–,–
O=C(Nc1cccc(CCNc2ncnc3ccsc23)c1)Nc1cccc(C(F)(F)F)c1,> 20000,–,–,–,–,–,–,–
O=C(Nc1cccc(C(F)(F)F)c1)Nc1cn(CCNc2ncnc3ccsc23)cn1,1200,–,–,–,–,–,–,–
COc1cccc(NC(=O)Nc2ncc(CCNc3ncnc4ccsc34)s2)c1,50,34,16,–,–,–,–,–
O=C(Cc1cccc(C(F)(F)F)c1)Nc1ncc(CCNc2ncnc3ccsc23)s1,> 10000,–,–,580,–,–,–,IC50 (HCT-116 [1]): > 10000 nM
C#Cc1cccc(NC(=O)Nc2ncc(CCNc3ncnc4ccsc34)s2)c1,41,14,< 16,–,–,–,–,–
O=C(Cc1ncc(CCNc2ncnc3ccsc23)s1)Nc1cccc(C(F)(F)F)c1,4900,–,–,442,–,–,–,–
O=C(Nc1cccc(C(F)(F)F)c1)Nc1ncc(CCNc2ncnc3ccsc23)s1,–,–,< 16,14,75,< 16,50,inhibition in vivo at 100 mg/kg (Mus musculus [3]): 75%; inhibition in vivo at 100 mg/kg (Mus musculus [6]): 75%
O=C(Nc1ncc(CCNc2ncnc3ccsc23)s1)c1cccc(C(F)(F)F)c1,2500,–,1000,–,–,–,–,–
O=C(Nc1ccccc1)Nc1ncc(CCNc2ncnc3ccsc23)s1,52,–,–,120,–,–,–,–
CN(C(=O)Nc1ncc(CCNc2ncnc3ccsc23)s1)c1ccccc1,7200,–,–,–,–,–,–,IC50 (HCT-116 [1]): > 10000 nM
O=C(Nc1ccc(Cl)cc1)Nc1ncc(CCNc2ncnc3ccsc23)s1,39,30,16,–,–,–,–,–
O=C(Nc1ncc(CCNc2ncnc3ccsc23)s1)Nc1ccccc1Cl,280,376,> 250,–,–,–,–,–
O=C(Nc1cc(CN2CCCC2)cc(C(F)(F)F)c1)Nc1ncc(CCNc2ncnc3ccsc23)s1,4,6,< 16,22,25,16,0,inhibition in vivo at 100 mg/kg (Mus musculus [3]): 50%; concentration at 10 h [8]: 8.76 µM; inhibition in vivo at 100 mg/kg (Mus musculus [6]): 25%; concentration at 6 h [9]: 6.2 µM
O=C(Nc1ncc(CCNc2ncnc3ccsc23)s1)Nc1cccc2cc[nH]c12,30,31,16,19,75,16,75,inhibition in vivo at 100 mg/kg (Mus musculus [3]): 75%; concentration at 6 h [10]: 4.82 µM; concentration at 10 h [11]: 3.67 µM; concentration at 10 h [8]: 4.36 µM; inhibition in vivo at 100 mg/kg (Mus musculus [6]): 75%; concentration at 6 h [9]: 16.9 µM
O=C(Nc1ncc(CCNc2ncnc3ccsc23)s1)NC1CCCCC1,270,72,63,61,–,–,–,–
O=C(Nc1ccc(Cl)c(Cl)c1)Nc1ncc(CCNc2ncnc3ccsc23)s1,96,24,16,13,0,16,0,inhibition in vivo at 100 mg/kg (Mus musculus [3]): 25%; concentration at 6 h [10]: 21.3 µM; concentration at 10 h [11]: 12.5 µM; concentration at 10 h [8]: 54.8 µM; inhibition in vivo at 100 mg/kg (Mus musculus [6]): 25%; concentration at 6 h [9]: 49.5 µM
O=C(Nc1cccc(F)c1)Nc1ncc(CCNc2ncnc3ccsc23)s1,23,6,< 16,18,25,< 16,0,inhibition in vivo at 100 mg/kg (Mus musculus [3]): 75%; concentration at 6 h [10]: 1.2 µM; concentration at 10 h [11]: < 1 µM; concentration at 10 h [8]: 19.8 µM; inhibition in vivo at 100 mg/kg (Mus musculus [6]): 25%; concentration at 6 h [9]: 101 µM
O=C(Nc1cccc(C(F)(F)F)c1)Nc1nc(CCNc2ncnc3ccsc23)cs1,> 20000,–,–,–,–,–,–,–
Cc1cccc(NC(=O)Nc2ncc(CCNc3ncnc4ccsc34)s2)c1,9,19,< 16,54,–,–,–,–
O=C(Nc1cccc(C(F)(F)F)c1)Nc1cn(CCNc2ncnc3ccsc23)nn1,250,–,–,–,–,–,–,–
O=C(Nc1cccc(CCN2CCC2)c1)Nc1ncc(CCNc2ncnc3ccsc23)s1,53,121,16,120,0,63,0,concentration at 6 h [10]: < 1 µM; concentration at 10 h [11]: < 1 µM
O=C(Nc1ccc(F)c(Cl)c1)Nc1ncc(CCNc2ncnc3ccsc23)s1,11,5,< 16,51,75,< 16,25,inhibition in vivo at 100 mg/kg (Mus musculus [3]): 75%; concentration at 6 h [10]: 25.8 µM; concentration at 10 h [11]: 15.6 µM; concentration at 10 h [8]: 56.1 µM; inhibition in vivo at 100 mg/kg (Mus musculus [6]): 50%; concentration at 6 h [9]: 112 µM
CS(=O)(=O)O.O=C(Nc1cccc(Cl)c1)Nc1ncc(CCNc2ncnc3ccsc23)s1 [SNS-314 MESYLATE],–,–,< 16,–,75,< 16,50,inhibition in vivo at 100 mg/kg (Mus musculus [3]): 75%; concentration at 6 h [10]: 9.07 µM; concentration at 10 h [11]: 3.72 µM; concentration at 10 h [8]: 31.6 µM; inhibition in vivo at 100 mg/kg (Mus musculus [6]): 75%; concentration at 6 h [9]: 28.6 µM; inhibition in vivo at 100 mg/kg (HCT-116 [12]): 96%
